Reference: ChEMBL document CHEMBL3120147, “Synthesis and in vitro urease inhibitory activity of N,N'-disubstituted thioureas” (Eur J Med Chem, 2014)

Columns and labels:
Urease [1] = target: T1, Urease (Canavalia ensiformis, UniProt P07374); experiment: Inhibition of jack bean urease using urea as substrate assessed as ammonia production after 15 mins by indophenol method
Urease [2] = target: T1, Urease; experiment: (§1) Competitive inhibition of jack bean urease using urea as substrate assessed as ammonia production after 15 mins by Lineweaver-Burk/Dixon plot analysis
[3] = target: Urease (Canavalia ensiformis) (UniProt P07374); experiment: as §1
Sequence of Urease (Canavalia ensiformis) (P07374 whole entry, looked up): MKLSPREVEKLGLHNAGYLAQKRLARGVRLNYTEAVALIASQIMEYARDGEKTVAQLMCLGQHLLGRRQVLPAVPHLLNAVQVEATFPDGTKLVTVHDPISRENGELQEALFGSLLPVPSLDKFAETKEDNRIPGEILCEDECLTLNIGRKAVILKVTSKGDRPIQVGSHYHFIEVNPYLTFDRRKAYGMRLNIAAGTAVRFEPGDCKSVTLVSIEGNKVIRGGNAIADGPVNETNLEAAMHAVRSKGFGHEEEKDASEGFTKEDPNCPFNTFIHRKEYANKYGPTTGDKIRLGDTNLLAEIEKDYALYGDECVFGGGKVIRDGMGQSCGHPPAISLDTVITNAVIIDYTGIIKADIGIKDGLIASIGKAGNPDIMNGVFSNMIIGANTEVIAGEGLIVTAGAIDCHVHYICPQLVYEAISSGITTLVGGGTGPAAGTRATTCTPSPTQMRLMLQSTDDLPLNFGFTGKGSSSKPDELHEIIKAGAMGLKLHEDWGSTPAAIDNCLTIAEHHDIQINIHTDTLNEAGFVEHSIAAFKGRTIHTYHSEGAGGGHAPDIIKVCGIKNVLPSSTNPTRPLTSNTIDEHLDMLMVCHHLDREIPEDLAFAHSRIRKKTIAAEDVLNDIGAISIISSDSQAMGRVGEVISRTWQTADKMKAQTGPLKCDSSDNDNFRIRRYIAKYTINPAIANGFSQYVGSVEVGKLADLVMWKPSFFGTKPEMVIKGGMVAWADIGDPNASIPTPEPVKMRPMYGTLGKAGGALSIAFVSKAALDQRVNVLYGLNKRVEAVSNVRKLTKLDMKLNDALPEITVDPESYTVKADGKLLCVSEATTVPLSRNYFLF

[4] = target: Urease (Canavalia ensiformis) (UniProt P07374); experiment: (§2) Mixed-type inhibition of jack bean urease using urea as substrate assessed as ammonia production after 15 mins by Lineweaver-Burk/Dixon plot analysis
Urease [5] = target: T1, Urease; experiment: as §2
[6] = target: Urease (Canavalia ensiformis) (UniProt P07374); experiment: (§3) Non-competitive inhibition of jack bean urease using urea as substrate assessed as ammonia production after 15 mins by Lineweaver-Burk/Dixon plot analysis
Urease [7] = target: T1, Urease; experiment: as §3

T1 sequence (P07374 whole entry): as the sequence (P07374 whole entry, looked up) above

Structure (SMILES)	IC50 (Urease [1]; read-out: IC50)	other results
Fc1ccc(NC(=S)Nc2ccccc2)c(F)c1	24.3 µM	–
S=C(Nc1cccc(Cl)c1)Nc1cccc(Cl)c1Cl	27.1 µM	–
Fc1ccc(NC(=S)Nc2cccc(Cl)c2)cc1F	16.3 µM	–
S=C(Nc1cccc(Cl)c1)Nc1cccnc1Cl	–	IC50 (Urease [1]): Not Active
NC(N)=S [THIOUREA]	–	Ki (Urease [2]): 20 µM
S=C(Nc1ccccc1)Nc1cccnc1Cl	–	IC50 (Urease [1]): Not Active
S=C(Nc1cccc(Cl)c1)Nc1ccc(Cl)c(Cl)c1	11 µM	inhibition [3]: Dose-dependent effect; Ki (Urease [2]): 11.7 µM
S=C(Nc1ccccc1)Nc1ccc(Br)cc1	34.3 µM	–
Fc1ccc(NC(S)=Nc2cccc(Cl)c2)cc1	–	inhibition [4]: Dose-dependent effect
S=C(Nc1cccc(Cl)c1)Nc1ccc(Cl)cc1Cl	42.2 µM	–
Cc1ccccc1NC(=S)Nc1cccc(Cl)c1	34.4 µM	–
S=C(Nc1cccc(Cl)c1)Nc1c(Cl)cccc1Cl	41 µM	–
Cc1cccnc1NC(=S)Nc1cccc(Cl)c1	15.9 µM	–
Cc1ccc(Cl)cc1NC(=S)Nc1cccc(Cl)c1	20.1 µM	inhibition [4]: Dose-dependent effect; Ki (Urease [5]): 18.5 µM
S=C(Nc1ccccc1)Nc1cccc(Br)c1	18.3 µM	inhibition [4]: Dose-dependent effect; Ki (Urease [5]): 15.6 µM
Cc1ccc(C)c(NC(=S)Nc2cccc(Cl)c2)c1	20.9 µM	inhibition [4]: Dose-dependent effect; Ki (Urease [5]): 19.3 µM
S=C(NCc1cccnc1)Nc1ccccc1	33.5 µM	–
S=C(NCc1ccco1)Nc1ccccc1	32.4 µM	–
COc1cccc(NC(=S)Nc2cccc(Cl)c2)c1	24.5 µM	–
S=C(Nc1cccc(Cl)c1)Nc1ccccc1Cl	22.2 µM	–

Structure (SMILES)	IC50 (Urease [1]; read-out: IC50)	other results
S=C(Nc1ccccc1)Nc1ccccn1	23.4 µM	–
Fc1ccc(NC(=S)Nc2cccc(Cl)c2)cc1	19.1 µM	Ki (Urease [5]): 16.8 µM
S=C(NCc1ccncc1)Nc1ccccc1	32.6 µM	–
S=C(Nc1ccc(Cl)cc1)Nc1cccc(Cl)c1	20.3 µM	inhibition [4]: Dose-dependent effect; Ki (Urease [5]): 18.1 µM
Cc1nc(NC(=S)Nc2ccccc2)ccc1Br	82.7 µM	–
S=C(Nc1ccccc1)Nc1ccncc1	43.9 µM	–
S=C(NCc1ccncc1)Nc1cccc(Cl)c1	22.7 µM	–
Cc1cccc(NC(=S)Nc2cccc(Cl)c2)c1	15 µM	inhibition [4]: Dose-dependent effect; Ki (Urease [5]): 15.7 µM
S=C(Nc1cccnc1)Nc1cccc(Cl)c1	24.5 µM	–
Cc1cccnc1NC(=S)Nc1ccccc1	25.3 µM	–
S=C(Nc1ccccc1)Nc1ncc(Cl)cc1Cl	37 µM	–
Cc1cccc(C)c1NC(=S)Nc1cccc(Cl)c1	27.4 µM	–
COc1ccccc1NC(=S)Nc1cccc(Cl)c1	20.1 µM	–
COc1ccc(NC(=S)Nc2cccc(Cl)c2)cc1	29.6 µM	–
S=C(Nc1ccccc1)Nc1cccnc1	8.43 µM	inhibition [3]: Dose-dependent effect; Ki (Urease [2]): 8.6 µM
Cc1ccc(NC(=S)Nc2cccc(Cl)c2)cc1	18.6 µM	inhibition [6]: Dose-dependent effect; Ki (Urease [7]): 12.1 µM
S=C(Nc1cccc(Cl)c1)Nc1cccc(Cl)c1	20 µM	inhibition [4]: Dose-dependent effect; Ki (Urease [5]): 18.1 µM
Cc1ccc(NC(=S)Nc2cccc(Cl)c2)c(C)c1	24.1 µM	–
COc1ccc(OC)c(NC(=S)Nc2ccccc2)c1	29.9 µM	–
S=C(NCc1cccnc1)Nc1cccc(Cl)c1	23 µM	–
